Source: ChEMBL document CHEMBL1649082, “Trends in kinase selectivity: insights for target class-focused library screening” (J Med Chem, 2011)

How the values were obtained:
Design in all cases: scale not given: the % may be the effect or the level left
[1] = biological target: T1, Inhibitor of nuclear factor kappa-B kinase subunit alpha (Homo sapiens) (UniProt O15111); assay: Inhibition of IKKalpha assessed as activity at 1 uM relative to control
T1 sequence (whole entry): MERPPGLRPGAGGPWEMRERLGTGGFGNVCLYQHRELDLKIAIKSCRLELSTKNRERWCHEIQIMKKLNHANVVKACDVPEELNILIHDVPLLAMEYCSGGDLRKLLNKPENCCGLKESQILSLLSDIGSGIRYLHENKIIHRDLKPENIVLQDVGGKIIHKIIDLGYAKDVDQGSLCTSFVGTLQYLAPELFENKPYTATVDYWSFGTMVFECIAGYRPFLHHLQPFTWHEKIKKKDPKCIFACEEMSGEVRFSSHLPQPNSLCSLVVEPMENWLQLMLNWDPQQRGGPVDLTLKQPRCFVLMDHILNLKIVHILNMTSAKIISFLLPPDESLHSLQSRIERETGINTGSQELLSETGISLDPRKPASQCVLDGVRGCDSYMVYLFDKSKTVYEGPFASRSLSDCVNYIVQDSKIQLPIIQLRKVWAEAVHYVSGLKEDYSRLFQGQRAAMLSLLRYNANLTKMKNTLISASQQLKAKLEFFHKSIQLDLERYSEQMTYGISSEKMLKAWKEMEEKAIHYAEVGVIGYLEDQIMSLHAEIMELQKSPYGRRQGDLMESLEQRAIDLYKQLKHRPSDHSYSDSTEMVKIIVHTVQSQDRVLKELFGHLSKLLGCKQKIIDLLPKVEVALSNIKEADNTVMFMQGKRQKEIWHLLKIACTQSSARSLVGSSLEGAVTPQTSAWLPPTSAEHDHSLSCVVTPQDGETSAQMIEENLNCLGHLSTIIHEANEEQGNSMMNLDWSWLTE

[2] = biological target: Cyclin-dependent kinase 7 (Homo sapiens) (UniProt P50613); assay: Inhibition of CDK7 assessed as activity at 1 uM relative to control
Chain of Cyclin-dependent kinase 7 (Homo sapiens) (P50613 whole entry, canonical isoform): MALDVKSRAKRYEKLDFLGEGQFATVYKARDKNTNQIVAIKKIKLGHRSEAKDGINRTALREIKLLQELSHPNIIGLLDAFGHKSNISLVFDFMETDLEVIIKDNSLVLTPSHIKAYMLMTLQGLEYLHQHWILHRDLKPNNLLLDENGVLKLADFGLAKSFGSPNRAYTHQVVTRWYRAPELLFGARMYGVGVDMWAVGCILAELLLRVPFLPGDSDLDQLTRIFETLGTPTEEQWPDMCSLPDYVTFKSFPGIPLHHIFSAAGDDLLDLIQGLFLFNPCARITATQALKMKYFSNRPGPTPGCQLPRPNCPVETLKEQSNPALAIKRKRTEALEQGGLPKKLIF

[3] = Inhibition of CDC2L2 isoform 1 assessed as activity at 1 uM relative to control
[4] = Inhibition of CDC2L1 isoform 4 assessed as activity at 1 uM relative to control

Row | Compound | Activity [1] | Activity [2] | Activity [3] | Activity [4]
1 | Cc1cnc2c(NCCN)nc3cc(-c4cccc(CO)c4)sc3n12 | 4.6% | 0.5% | 6.3% | 2.1%
2 | Cc1cccc(-c2cc3nc(NCCN)c4ncc(C)n4c3s2)c1 | 15% | 58% | 68% | 42%
